The text below walks through data of patent US20140288113A1, “Extended Release Compositions Comprising Hydrocodone And Acetaminophen For Rapid Onset And Prolonged Analgesia That May Be Administered Without Regard To Food” (MALLINCKRODT LLC, priority 2013, published 2014).

A value given as a limit tells only on which side of the number the result lay.

Series [1] has as its system hepatic GSH. Kind of series: Hepatic glutathione depletion after acetaminophen in Swiss mice (Brzeznicka and Piotrowski 1989). In kind it is in vivo. From the text: The bioequivalence level is 95%.
The subject of series [2] is hepatic GSH. The conditions noted are these: mice, cited from earlier work.

For `CC(=O)Nc1ccc(O)cc1` [acetaminophen], the “safety exposure ratio compared with human levels (1.3 g/day, 70 kg)” value is on record as 22 fold in the series on hepatic GSH [1] (Swiss mice 400 mg/kg) and 32 fold in the series with hepatic GSH [1] (Swiss mice 600 mg/kg). In addition, the “time after administration at which circulating hepatic GSH changes began” value with hepatic GSH [2] (100 mg/kg to 600 mg/kg) is listed as at most 15 min. Moreover, the “time after injection of minimum GSH level” value in the series on hepatic GSH [2] (all dose groups) is 2 h.
